This note sets out measurements from patent US20160194358A1, “LINEAR PEPTIDE ANTIBIOTCS” (priority 2013, published 2016).

SMILES strings stand for the structures. Values after ≈ are worked out from the molar mass of the structure shown. Read-outs that look alike come from different tables or passages of the source. *1 amine or outer side, *2 acyl side, *3 side chain or, on linkers, in order; H or OH if unused. Where a SMILES comes first, the peptide text is derived from it. [ ]: non-standard residue; d: D form. The star is where a group is joined. ξ: configuration not given here. boroAla((+)-pinanediol) = C[C@H](N*)B1O[C@@H]2C[C@@H]3C[C@@H](C3(C)C)[C@]2(C)O1; Biphenylcarbonyl(4'-Bu) = CCCCc1ccc(-c2ccc(C(=O)*)cc2)cc1; Benzoyl(4-(4-Cl-Ph)) = O=C(c1ccc(-c2ccc(Cl)cc2)cc1)*; ξ3Amino2oxobutanoyl = CC(N[*:1])C(=O)C(=O)[*:2]; X16 = O=S(=O)(c1ccc(-c2ccc(Cl)cc2)cc1)*; X10 = O=C(c1ccc(-c2ccc(Cl)cc2)nc1)*; X1 = C[C@H](N[*:1])C(=O)C(=O)[*:2]; Thr(3ξ) = CC(O)[C@H](N)C(=O)O; Decanoyl = CCCCCCCCCC(=O)*; X4 = c1ccc(C2CCN(*)CC2)cc1; Dab = NCC[C@H](N)C(=O)O; Dap = NC[C@H](N)C(=O)O; CO = O=C([*:1])[*:2]; CF3 = FC(F)(F)*

For assay [1], the system named is Escherichia coli strain MC4100 IMP-4213, which harbors an LptD mutation. Particulars: E. coli MC4100 IMP-4213, 35° C., 22 hours. A digest of the protocol:
(§1)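 CLSI broth microdilution in cation-adjusted Mueller Hinton Broth with 0.002% Tween-80, two-fold dilutions starting at 64 μg/ml.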

Assay [2] deals with methicillin resistant Staphylococcus aureus (MRSA) strain USA300 (NRS384). Particulars: MRSA USA300 (NRS384), 35° C., 22 hours. A digest of the protocol: as §1
A further assay deals with T1, E. coli SPase (Escherichia coli, UniProt P00803).
T1 construct: Full length His-tagged E. coli SPase proteins; His; made in house; host or cells: E. coli BL21(DE3)
T1 sequence (P00803 whole entry): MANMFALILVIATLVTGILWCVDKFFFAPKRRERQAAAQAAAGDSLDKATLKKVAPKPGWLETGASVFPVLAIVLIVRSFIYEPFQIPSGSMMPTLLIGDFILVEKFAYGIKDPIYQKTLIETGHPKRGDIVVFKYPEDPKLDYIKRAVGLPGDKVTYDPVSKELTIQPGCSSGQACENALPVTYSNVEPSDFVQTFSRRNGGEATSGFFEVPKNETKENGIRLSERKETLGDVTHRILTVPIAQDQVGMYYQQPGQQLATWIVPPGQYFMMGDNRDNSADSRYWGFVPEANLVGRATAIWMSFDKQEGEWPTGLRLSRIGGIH
The experiment in a line: Biochemical SPase activity assay, fluorogenic peptide substrate, E. coli enzyme. Particulars: 20 μM substrate, 10 minutes preincubation, read-out: IC 50 (nM) E. coli.

Another assay has as its target S. aureus SPase (Staphylococcus aureus, UniProt P0A070). The experiment in a line: biochemical. As to conditions: IC 50 (nM) S. aureus, 20 μM substrate, 10 minutes preincubation.

Chain of S. aureus SPase (P0A070 whole entry): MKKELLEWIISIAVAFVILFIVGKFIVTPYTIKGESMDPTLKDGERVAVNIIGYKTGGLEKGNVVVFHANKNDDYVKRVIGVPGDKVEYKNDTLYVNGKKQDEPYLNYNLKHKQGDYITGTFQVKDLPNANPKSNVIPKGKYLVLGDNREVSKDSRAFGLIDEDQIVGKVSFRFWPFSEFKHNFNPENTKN

As to `C[C@H](NC(=O)[C@H](CCCCN)NC(=O)[C@H](C)NC(=O)[C@@H](NC(=O)[C@H](CCN)NC(=O)c1ccc(-c2ccc(Cl)cc2)nc1)[C@@H](C)O)B1O[C@@H]2C[C@@H]3C[C@@H](C3(C)C)[C@]2(C)O1` [Compound 118] (X10-[Dab]TAK-{boroAla((+)-pinanediol)}), the “MIC (μg/mL) E. coli” value in assay [1] came out at 8 µg/mL (≈ 9.53 µM). In assay [2], the “MIC (μg/mL) S. aureus” value stood at 2 µg/mL (≈ 2.38 µM). Also, the values for the IC50 at E. coli SPase and against S. aureus SPase were 15 nM and 70 nM, respectively.
As for `CCCCc1ccc(-c2ccc(C(=O)N[C@@H](CCN)C(=O)N[C@H](C(=O)N[C@@H](C)C(=O)N[C@@H](CCCCN)C(=O)N[C@@H](C)C(=O)C3OC3C)[C@@H](C)O)cc2)cc1` (single isomer, unassigned) [Compound 203 P2], in assay [1] (listed as 203 P2), the “MIC (μg/mL) E. coli” value came to 23 µg/mL (≈ 30 µM). In addition, the “MIC (μg/mL) S. aureus” value in assay [2] (listed as 203 P2) is 8 µg/mL (≈ 10.4 µM). For the same compound, the IC50 at E. coli SPase was found to be 1500 nM; on S. aureus SPase, 1000 nM.
Regarding `CCNC(=O)C(=O)[C@H](C)NC(=O)[C@H](CCCCN)NC(=O)[C@H](C)NC(=O)[C@@H](NC(=O)[C@H](CN)NC(=O)c1ccc(-c2ccc(Cl)cc2)cc1)[C@@H](C)O` [Compound 102] ({Benzoyl(4-(4-Cl-Ph))}-[Dap]TAK[X1]-NHEt), the “MIC (μg/mL) E. coli” value in assay [1] was above 64 µg/mL. Moreover, in assay [2], the “MIC (μg/mL) S. aureus” value stood at 32 µg/mL (≈ 42.9 µM). For the same compound, the IC50 came to 440 nM on E. coli SPase and 580 nM against S. aureus SPase.
The matching figures for `CCCCCCCCCC(=O)N[C@@H](CCCCN)C(=O)N[C@H](C(=O)N[C@@H](C)C(=O)N[C@@H](CC(N)=O)C(=O)NC(C)C(=O)C(=O)NC)C(C)O` (stereo partly drawn) [Compound 107] (Decanoyl-K[Thr(3ξ)]AN[ξ3Amino2oxobutanoyl]-NHMe): above 64 µg/mL, above 64 µg/mL, 3200 nM and 360 nM.
On the same counts, the results for `C[C@H](NC(=O)[C@H](CCCCN)NC(=O)[C@H](C)NC(=O)[C@@H](NC(=O)[C@H](CCCCN)NC(=O)N1CCC(c2ccccc2)CC1)[C@@H](C)O)B1O[C@@H]2C[C@@H]3C[C@@H](C3(C)C)[C@]2(C)O1` [Compound 126] ({X4-CO}-KTAK-{boroAla((+)-pinanediol)}) are above 64 µg/mL, 64 µg/mL (≈ 76.3 µM), 230 nM and 250 nM.
Take `C[C@H](NC(=O)[C@H](CCCCN)NC(=O)[C@H](C)NC(=O)[C@@H](NC(=O)[C@H](CCCCN)NS(=O)(=O)c1ccc(-c2ccc(Cl)cc2)cc1)[C@@H](C)O)B1O[C@@H]2C[C@@H]3C[C@@H](C3(C)C)[C@]2(C)O1` [Compound 128] (X16-KTAK-{boroAla((+)-pinanediol)}): the “MIC (μg/mL) E. coli” value in assay [1] stood at 64 µg/mL (≈ 70.9 µM). In addition, the “MIC (μg/mL) S. aureus” value in assay [2] is 2 µg/mL (≈ 2.22 µM). Further, the IC50 on E. coli SPase is 1200 nM; at S. aureus SPase, 75 nM.
The matching figures for `COC(=O)CNC(=O)C(=O)[C@H](C)NC(=O)[C@H](CCCCN)NC(=O)[C@H](C)NC(=O)[C@@H](NC(=O)[C@H](CN)NC(=O)c1ccc(-c2ccc(Cl)cc2)cc1)[C@@H](C)O` [Compound 111] ({Benzoyl(4-(4-Cl-Ph))}-[Dap]TAK[X1]G-OMe): 16 µg/mL (≈ 20.3 µM), 16 µg/mL (≈ 20.3 µM), 360 nM and 690 nM.
For the compound `CCCCc1ccc(-c2ccc(C(=O)N[C@@H](CCN)C(=O)N[C@H](C(=O)N[C@@H](C)C(=O)N[C@@H](CCCCN)C(=O)N[C@@H](C)C(=O)C(F)(F)F)[C@@H](C)O)cc2)cc1` [Compound 210] ({Biphenylcarbonyl(4'-Bu)}-[Dab]TAKA-CF3), the “MIC (μg/mL) E. coli” value in assay [1] worked out at 4 µg/mL (≈ 5.14 µM). Also, the “MIC (μg/mL) S. aureus” value in assay [2] came out at 11 µg/mL (≈ 14.1 µM). The IC50 is 260 nM on E. coli SPase and 2300 nM at S. aureus SPase.
With `CC(=O)N[C@@H](CCN)C(=O)N[C@H](C(=O)N[C@@H](C)C(=O)N[C@@H](CCCCN)C(=O)N[C@@H](C)B1O[C@@H]2C[C@@H]3C[C@@H](C3(C)C)[C@]2(C)O1)[C@@H](C)O` [Compound 113] (Ac-[Dab]TAK-{boroAla((+)-pinanediol)}), the “MIC (μg/mL) E. coli” value in assay [1] was above 64 µg/mL. Also, the “MIC (μg/mL) S. aureus” value in assay [2] was above 64 µg/mL. Further, the results for the IC50 at E. coli SPase and at S. aureus SPase were 5700 nM and 1200 nM, respectively.
